We go through 21 compounds from patent US11339171B2, “MDM2 inhibitors” (Gan & Lee Pharmaceuticals, priority 2017, dated 2022).

The subject of assay [1] is human osteosarcoma cell line SJSA-1. The experiment in a line: Inhibition of proliferation of human osteosarcoma cell line SJSA-1 (DAPI staining, In Cell Analyzer). To be noted: for IC50: Homo sapiens, SJSA-1, 72 h, read-out: IC50 (nM), inhibitory activity on proliferation of human osteosarcoma cell line SJSA-1, SJSA-1, incubated 72 h.
Assay [2] deals with T1, MDM2 (Homo sapiens, UniProt Q00987).
T1 construct: made in house
T1 sequence (Q00987 whole entry): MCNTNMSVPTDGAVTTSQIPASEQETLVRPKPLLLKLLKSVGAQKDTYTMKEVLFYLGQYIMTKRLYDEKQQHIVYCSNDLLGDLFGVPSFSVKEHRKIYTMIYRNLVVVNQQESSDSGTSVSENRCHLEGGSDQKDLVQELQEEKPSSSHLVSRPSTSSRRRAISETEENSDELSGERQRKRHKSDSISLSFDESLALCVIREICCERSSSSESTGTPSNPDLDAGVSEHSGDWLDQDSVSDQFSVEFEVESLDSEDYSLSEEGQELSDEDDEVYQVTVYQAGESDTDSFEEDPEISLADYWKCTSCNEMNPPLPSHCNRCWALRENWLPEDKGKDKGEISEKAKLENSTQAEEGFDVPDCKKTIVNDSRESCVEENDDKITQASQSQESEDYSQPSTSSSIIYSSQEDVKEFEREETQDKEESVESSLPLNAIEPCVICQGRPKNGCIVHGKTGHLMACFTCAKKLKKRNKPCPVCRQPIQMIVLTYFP
The experiment in a line: Inhibition test of MDM2-P53 (GST-MDM2, Biotin-P53, Anti-GST-Tb, SA-XL665). The class given is binding. Summed up:
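Compounds, serially diluted 5-fold (twelve concentrations), were shaken for 90 min at 25° C with a mix of GST-MDM2 (4 nM final), Biotin-P53, anti-GST-Tb and SA-XL665. Buffer: 1×PBS, 0.1% BSA, 5 mM DTT, 1 mM AEBSF; signal read on a microplate reader.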

[3] abbreviates: labels are Example numbers, the compounds with S-configuration are meant.

On to `COc1nc(OCC(F)F)ncc1-c1nc2c(n1C(C)C)[C@@]1(C(=O)Nc3cc(Cl)ccc31)N(c1cc(Cl)ccc1C)C2=O` [Example S-147, (S)-6-chloro-5′-(5-chloro-2-methylphenyl)-2′-(2-(2,2-difluoroethoxy)-4-methoxypyrimidin-5-yl)-3′-isopropyl-3′H-spiro[dihydroindole-3,4′-pyrrolo[3,4-d]imidazole]-2,6′(5′H)-dione], for which the IC50 was 271 nM in assay [1] and 0.00589 µM in assay [2].

As for `COc1cc(C2CC2)ncc1-c1nc2c(n1C(C)C)[C@]1(C(=O)Nc3cc(Cl)ccc31)N(c1cc(Cl)ccc1C)C2=O` [Example R-103, (R)-6-chloro-5′-(5-chloro-2-methylphenyl)-2′-(6-cyclopropyl-4-methoxypyridin-3-yl)-3′-isopropyl-3′H-spiro[dihydroindole-3,4′-pyrrolo[3,4-d]imidazole]-2,6′(5′H)-dione], the IC50 in assay [1] was 2430 nM; in assay [2] it was 0.181 µM.

Take `COc1ncc(-c2nc3c(n2C(C)C)[C@@]2(C(=O)Nc4cc(Cl)ccc42)N(c2cc(Cl)cn(C)c2=O)C3=O)c(OC)n1` [Example S-16, (S)-6-chloro-5′-(5-chloro-1-methyl-2-oxo-1,2-dihydropyridin-3-yl)-2′-(2,4-dimethoxypyrimidin-5-yl)-3′-isopropyl-3′H-spiro[dihydroindole-3,4′-pyrrolo[3,4-d]imidazole]-2,6′(5′H)-dione]: the IC50 in assay [1] was determined as 3560 nM; in assay [2], 0.00339 µM.

For the compound `COc1cc(C)ccc1-c1nc2c(n1C(C)C)[C@@]1(C(=O)Nc3cc(Cl)ccc31)N(c1cc(Cl)ccc1C)C2=O` [Example S-24, (S)-6-chloro-5′-(5-chloro-2-methylphenyl)-3′-isopropyl-2′-(2-methoxy-4-methylphenyl)-3′H-spiro[dihydroindole-3,4′-pyrrolo[3,4-d]imidazole]-2,6′(5′H)-dione], the values for the IC50 in assay [1] and in assay [2] were 4.17 nM and 0.0044 µM, respectively.

Turning to `COc1cc(OC)c(-c2nc3c(n2C(C)C)[C@]2(C(=O)Nc4cc(Cl)ccc42)N(c2cc(Cl)ccc2C)C3=O)cc1F` [Example R-92, (R)-6-chloro-5′-(5-chloro-2-methylphenyl)-2′-(5-fluoro-2,4-dimethoxyphenyl)-3′-isopropyl-3′H-spiro[dihydroindole-3,4′-pyrrolo[3,4-d]imidazole]-2,6′(5′H)-dione], the results for the IC50 in assay [1] and in assay [2] were 4880 nM and 0.378 µM, respectively.

Turning to `COc1ccc(N2C(=O)c3nc(-c4ccccc4OC)n(C(C)C)c3[C@@]23C(=O)Nc2cc(Cl)ccc23)cc1Cl` [Example S-63, (S)-6-chloro-5′-(3-chloro-4-methoxyphenyl)-3′-isopropyl-2′-(2-methoxyphenyl)-3′H-spiro[dihydroindole-3,4′-pyrrolo[3,4-d]imidazole]-2,6′(5′H)-dione], the IC50 in assay [1] amounted to 77.6 nM; in assay [2], 0.00116 µM.

Regarding `COc1cc(C(F)(F)F)ccc1-c1nc2c(n1C(C)C)[C@@]1(C(=O)Nc3cc(Cl)ccc31)N(c1cccc(Cl)c1)C2=O` [Example S-129, (S)-6-chloro-5′-(3-chlorophenyl)-3′-isopropyl-2′-(2-methoxy-4-(trifluoromethyl)phenyl)-3′H-spiro[dihydroindole-3,4′-pyrrolo[3,4-d]imidazole]-2,6′(5′H)-dione], the IC50 turned out to be 146 nM in assay [1] and 0.00384 µM in assay [2].

For the compound `Cc1ccc(Cl)cc1N1C(=O)c2nc(-c3ccccc3OC(F)F)n(C(C)C)c2[C@@]12C(=O)Nc1cc(Cl)ccc12` [Example S-30, (S)-6-chloro-5′-(5-chloro-2-methylphenyl)-2′-(2-(difluoromethoxy)phenyl)-3′-isopropyl-3′H-spiro[dihydroindole-3,4′-pyrrolo[3,4-d]imidazole]-2,6′(5′H)-dione], the values for the IC50 in assay [1] and in assay [2] were 58.1 nM and 0.00331 µM, respectively.

On to `COc1ccccc1-c1nc2c(n1C(C)C)[C@]1(C(=O)Nc3cc(Cl)ccc31)N(c1cc(Cl)ccc1C)C2=O` [Example R-5, (R)-6-chloro-5′-(5-chloro-2-methylphenyl)-3′-isopropyl-2′-(2-methoxyphenyl)-3′H-spiro[dihydroindole-3,4′-pyrrolo[3,4-d]imidazole]-2,6′(5′H)-dione], for which the IC50 in assay [1] worked out at 1600 nM; in assay [2] it was 0.109 µM.

Consider `COc1cc(N(C)CCO)ccc1-c1nc2c(n1C(C)C)[C@@]1(C(=O)Nc3cc(Cl)ccc31)N(c1cc(Cl)ccc1C)C2=O` [Example S-162, (S)-6-chloro-5′-(5-chloro-2-methylphenyl)-2′-(4-((2-hydroxyethyl)(methyl)amino)-2-methoxyphenyl)-3′-isopropyl-3′H-spiro[dihydroindole-3,4′-pyrrolo[3,4-d]imidazole]-2,6′(5′H)-dione], for which the IC50 amounted to 14.9 nM in assay [1] and 0.00207 µM in assay [2].

Regarding `COc1cc(C2CC2)ccc1-c1nc2c(n1C(C)C)[C@@]1(C(=O)Nc3cc(Cl)ccc31)N(c1cc(Cl)cnc1C)C2=O` [Example S-145, (S)-6-chloro-5′-(5-chloro-2-methylpyridin-3-yl)-2′-(4-cyclopropyl-2-methoxyphenyl)-3′-isopropyl-3′H-spiro[dihydroindole-3,4′-pyrrolo[3,4-d]imidazole]-2,6′(5′H)-dione], the IC50 in assay [1] was found to be 28.2 nM; in assay [2] it was 0.00205 µM.

`COc1cc(-c2nc3c(n2C(C)C)[C@@]2(C(=O)Nc4cc(Cl)ccc42)N(c2cc(Cl)ccc2C)C3=O)c(OC)cn1` [Example S-40, (S)-6-chloro-5′-(5-chloro-2-methylphenyl)-2′-(2,5-dimethoxypyridin-4-yl)-3′-isopropyl-3′H-spiro[dihydroindole-3,4′-pyrrolo[3,4-d]imidazole]-2,6′(5′H)-dione]: the IC50 in assay [1] stood at 14.1 nM; in assay [2], 0.00385 µM.

Consider `CCOc1ncc(-c2nc3c(n2C(C)C)[C@@]2(C(=O)Nc4cc(Cl)ccc42)N(c2cccc(Cl)c2)C3=O)c(OC)n1` [Example S-123, (S)-6-chloro-5′-(3-chlorophenyl)-2′-(2-ethoxy-4-methoxypyrimidin-5-yl)-3′-isopropyl-3′H-spiro[dihydroindole-3,4′-pyrrolo[3,4-d]imidazole]-2,6′(5′H)-dione], for which the IC50 in assay [1] was 321 nM; in assay [2], 0.00211 µM.

Consider `COc1cc(Cl)cc(N2C(=O)c3nc(-c4cnc(OC)nc4OC)n(C(C)C)c3[C@@]23C(=O)Nc2cc(Cl)ccc23)c1` [Example S-58, (S)-6-chloro-5′-(3-chloro-5-methoxyphenyl)-2′-(2,4-dimethoxypyrimidin-5-yl)-3′-isopropyl-3′H-spiro[dihydroindole-3,4′-pyrrolo[3,4-d]imidazole]-2,6′(5′H)-dione], for which the IC50 in assay [1] is 50.8 nM; in assay [2], 0.0114 µM.

As to `COc1cc(OC(C)C)ncc1-c1nc2c(n1C(C)C)C1(C(=O)Nc3cc(Cl)ccc31)N(c1cc(Cl)ccc1C)C2=O` (stereo not drawn) [Example 69, 6-chloro-5′-(5-chloro-2-methylphenyl)-2′-(6-isopropoxy-4-methoxypyridin-3-yl)-3′-isopropyl-3′H-spiro[dihydroindole-3,4′-pyrrolo[3,4-d]imidazole]-2,6′(5′H)-dione], the “inhibitory effect on human osteosarcoma cell line SJSA-1 compared with positive control compound HDM201” value in assay [1] (setting [3]) is on record as “better”. Further, the “inhibitory effect on MDM2 compared with positive control compound HDM201” value in assay [2] (setting [3]) is recorded as “better”.

Regarding `COc1ccc(C(N)=O)cc1-c1nc2c(n1C(C)C)[C@@]1(C(=O)Nc3cc(Cl)ccc31)N(c1cc(Cl)ccc1C)C2=O` [Example S-29, (S)-3-(6-chloro-5′-(5-chloro-2-methylphenyl)-3′-isopropyl-2,6′-dioxo-5′,6′-dihydro-3′H-spiro[dihydroindole-3,4′-pyrrolo[3,4-d]imidazole]-2′-yl)-4-methoxybenzamide], the IC50 is 196 nM in assay [1] and 0.00101 µM in assay [2].

`COc1cc(N(C)CCO)ccc1-c1nc2c(n1C(C)C)[C@]1(C(=O)Nc3cc(Cl)ccc31)N(c1cc(Cl)ccc1C)C2=O` [Example R-162, (R)-6-chloro-5′-(5-chloro-2-methylphenyl)-2′-(4-((2-hydroxyethyl)(methyl)amino)-2-methoxyphenyl)-3′-isopropyl-3′H-spiro[dihydroindole-3,4′-pyrrolo[3,4-d]imidazole]-2,6′(5′H)-dione]: the results for the IC50 in assay [1] and in assay [2] were 782 nM and 0.12 µM, respectively.

As for `CCc1ccc(-c2nc3c(n2C(C)C)[C@@]2(C(=O)Nc4cc(Cl)ccc42)N(c2cccc(Cl)c2)C3=O)c(OC)c1` [Example S-107, (S)-6-chloro-5′-(3-chlorophenyl)-2′-(4-ethyl-2-methoxyphenyl)-3′-isopropyl-3′H-spiro[dihydroindole-3,4′-pyrrolo[3,4-d]imidazole]-2,6′(5′H)-dione], the IC50 worked out at 115 nM in assay [1] and 0.00455 µM in assay [2].

Turning to `COc1cc(N(C)C)c(C)cc1-c1nc2c(n1C(C)C)[C@@]1(C(=O)Nc3cc(Cl)ccc31)N(c1cc(Cl)ccc1C)C2=O` [Example S-91, (S)-6-chloro-5′-(5-chloro-2-methylphenyl)-2′-(4-(dimethylamino)-2-methoxy-5-methylphenyl)-3′-isopropyl-3′H-spiro[dihydroindole-3,4′-pyrrolo[3,4-d]imidazole]-2,6′(5′H)-dione], the values for the IC50 in assay [1] and in assay [2] were 14.4 nM and 0.00356 µM, respectively.

In the case of `CCOc1ncc(-c2nc3c(n2C(C)C)[C@@]2(C(=O)Nc4cc(Cl)ccc42)N(c2cc(F)cc(Cl)c2)C3=O)c(OC)n1` [Example S-180, (S)-6-chloro-5′-(3-chloro-5-fluorophenyl)-2′-(2-ethoxy-4-methoxypyrimidin-5-yl)-3′-isopropyl-3′H-spiro[dihydroindole-3,4′-pyrrolo[3,4-d]imidazole]-2,6′(5′H)-dione], the values for the IC50 in assay [1] and in assay [2] were 56.8 nM and 0.0046 µM, respectively.

In the case of `COc1nc(N(C)C)ncc1-c1nc2c(n1C(C)C)[C@@]1(C(=O)Nc3cc(Cl)ccc31)N(c1cccc(Cl)c1)C2=O` [Example S-112, (S)-6-chloro-5′-(3-chlorophenyl)-2′-(2-(dimethylamino)-4-methoxypyrimidin-5-yl)-3′-isopropyl-3′H-spiro[dihydroindole-3,4′-pyrrolo[3,4-d]imidazole]-2,6′(5′H)-dione], the IC50 in assay [1] was determined as 90.6 nM; in assay [2], 0.00115 µM.
